Test results reported in patent US7132287B2, “Method for neural stem cell differentiation using 5HT-1A agonists” (Psychiatric Genomics, Inc., priority 2001, dated 2006).
Where “and” joins values, the source holds several entries; their conditions need not be identical. Equal entries are not always repeated.

Columns and labels:
[1] = test system: cortical neural stem cells; assay: Neuronal differentiation of cortical neural stem cells (β tubulin III / TuJ-1 immunofluorescence); assay type: cell-based, rat; conditions: 1 μM Buspirone alone, 6 days
Text: (§1) Isolation of cortical and striatal stem cells. Timed pregnant Sprague Dawley rats obtained from Taconic at embryonic age E14-E15 were sacrificed as described above and the uterus removed and placed in ice cold PBS in a 10 cm petridish. After rinsing the uterus in PBS, embryos were removed from the uterus, rinsed in PBS and collected in cold HBSS (buffered with HEPES and sodium bicarbonate) in a 10 cm petridish and placed on ice.
(§2) The cortex and striatum was dissected under a microscope and collected in a 15 ml tube of HBSS, on ice. Removal of meninges is not possible at this age, and no attempt was made to do so. If the dissected tissue was in large enough chunks and settle to the bottom of the tube, no centrifugation was performed. Alternatively, the tube was centrifuged at 1000 rpm for 5 minutes to pellet the tissue. Following centrifugation, the 15 ml tube containing the tissue was sprayed with 70% ethanol and taken into the sterile hood.
(§3) The HBSS was aspirated and replaced with 10 ml of DMEM/F12. The tissue was collected at the bottom of the tube by gravity or centrifugation, medium was aspirated, and 1 ml of DMEM/F12 was to the tissue. Cells were dissociated by trituration as described above, followed by addition of 5 ml of DMEM/F12 and a second round of trituration. […] The tubes were placed standing 5–10 minutes in the hood to allow larger particles and meninges to settle. While the meninges were settling, a cell count was made. 10 μl of the cell suspension is diluted with trypan blue and counted in a hemocytometer. Cells were counted in the four outer chambers with the larger squares, and cell count calculated assuming that the volume enclosed in each of the chambers was […].
(§4) Plating, expansion and passaging of cortical and striatal stem cells A generous amount of the triturated cell suspension was left in the original 15 ml tube to avoid fibroblast contamination in cultures. About 4–5 ml of the 6 ml of cells suspension was used for plating. Cells were plated at a concentration of approximately 1×10^6 per 10 cm dish. This culture is designated P0 (passage 0).
(§5) Following plating cells were expanded for about 3–4 days. The cultures were never permitted to reach more than 70% confluency. Cultures were then passaged as follows: 5 ml of HBSS was added to each 10 cm dish and the cells incubated at 37° C. for 15–45 minutes, or until sufficient numbers of the stem cells were rounded up. It is not expected that all cells in the culture will round up as there are several cell types in the culture at P0. The pH of the HBSS should be neutral at all times during this incubation. Cells were then removed from the dish by pipetting with a 5 ml pipette, or by scraping with a policeman, collected in a 15 or 50 ml conical tube, and centrifuged at 1000 g for 5 minutes. Cells were gently re-suspended in medium, counted, and plated at a density of about 1×10^6 per 10 cm dish.
(§6) Drug treatments. Stem cells obtained as described above were treated with drugs and subjected to differentiation protocols in the second passage. Cells were plated at a density of 1×10^4 cells per well of a 12-well petridish (Falcon).
Drug treatments were started on the next day. […] The WAY 100635 antagonist compound was used simultaneously with buspirone or serotonin in the blocking experiments. Positive and negative control cultures were those treated with BDNF and FGF alone, respectively.
Cells were treated with the designated concentrations of drugs or combinations thereof, daily, and were fed every alternate day with fresh medium. Experiments were maintained for about 6–10 days in most cases.

striatal stem cells = assay: Differentiation of striatal stem cells (TuJ1 positive cells); assay type: cell-based, rat; conditions: for % TuJ1 positive cells: striatal stem cells, Table 6
Text: as §1, §2, §3, §4, §5, §6
Drug treatments were started on the next day. […] The WAY 100635 antagonist compound was used simultaneously with buspirone or serotonin in the blocking experiments. Positive and negative control cultures were those treated with BDNF and FGF alone, respectively. […]

[2] = TuJ-1 staining, listed as Buspirone

SMILES: O=C1CC2(CCCC2)CC(=O)N1CCCCN1CCN(c2ncccn2)CC1 [buspirone, 8-[4-[4-(2-pyrimidinyl)-1-piperazinyl]butyl]-8-azaspiro[4,5]decane-7,9-dione]
- Total No. of Cells [1]: 1168 and 1228
- % Fluorescent Cells ([1]; TuJ-1 staining): significant neuronal differentiation
- % Fluorescent Cells [1, 2]: 27.27% and 20.15%
- No. Fluorescent Cells [1, 2]: 320 and 260
- % TuJ1 positive cells (striatal stem cells; 100 nM): 54.4 ± 2.1%
- % TuJ1 positive cells (striatal stem cells; 500 nM): 64.8 ± 2.1%
- % TuJ1 positive cells (striatal stem cells; 10 μM): 67.9 ± 10.2%
- % TuJ1 positive cells (striatal stem cells; 100 μM): 68.5 ± 6.5%
- promotion of differentiation compared to untreated control cultures (in words) (striatal stem cells; striatum, concentrations as low as 100 nM): able to promote differentiation significantly
